{"source": "patent US20250144127A1", "about": "“LONG-CHAIN COMPOUND AND USE THEREOF” (Burgeon Therapeutics Co., Ltd., priority 2021, published 2025)", "key": {"[1]": {"target": "T1, Human-derived ACLY protein (Homo sapiens, UniProt P53396)", "T1 construct": "purchased Beijing Yiqiao Shenzhou Technology Co., Ltd 11769-H07B", "T1 sequence (P53396 1-1101)": "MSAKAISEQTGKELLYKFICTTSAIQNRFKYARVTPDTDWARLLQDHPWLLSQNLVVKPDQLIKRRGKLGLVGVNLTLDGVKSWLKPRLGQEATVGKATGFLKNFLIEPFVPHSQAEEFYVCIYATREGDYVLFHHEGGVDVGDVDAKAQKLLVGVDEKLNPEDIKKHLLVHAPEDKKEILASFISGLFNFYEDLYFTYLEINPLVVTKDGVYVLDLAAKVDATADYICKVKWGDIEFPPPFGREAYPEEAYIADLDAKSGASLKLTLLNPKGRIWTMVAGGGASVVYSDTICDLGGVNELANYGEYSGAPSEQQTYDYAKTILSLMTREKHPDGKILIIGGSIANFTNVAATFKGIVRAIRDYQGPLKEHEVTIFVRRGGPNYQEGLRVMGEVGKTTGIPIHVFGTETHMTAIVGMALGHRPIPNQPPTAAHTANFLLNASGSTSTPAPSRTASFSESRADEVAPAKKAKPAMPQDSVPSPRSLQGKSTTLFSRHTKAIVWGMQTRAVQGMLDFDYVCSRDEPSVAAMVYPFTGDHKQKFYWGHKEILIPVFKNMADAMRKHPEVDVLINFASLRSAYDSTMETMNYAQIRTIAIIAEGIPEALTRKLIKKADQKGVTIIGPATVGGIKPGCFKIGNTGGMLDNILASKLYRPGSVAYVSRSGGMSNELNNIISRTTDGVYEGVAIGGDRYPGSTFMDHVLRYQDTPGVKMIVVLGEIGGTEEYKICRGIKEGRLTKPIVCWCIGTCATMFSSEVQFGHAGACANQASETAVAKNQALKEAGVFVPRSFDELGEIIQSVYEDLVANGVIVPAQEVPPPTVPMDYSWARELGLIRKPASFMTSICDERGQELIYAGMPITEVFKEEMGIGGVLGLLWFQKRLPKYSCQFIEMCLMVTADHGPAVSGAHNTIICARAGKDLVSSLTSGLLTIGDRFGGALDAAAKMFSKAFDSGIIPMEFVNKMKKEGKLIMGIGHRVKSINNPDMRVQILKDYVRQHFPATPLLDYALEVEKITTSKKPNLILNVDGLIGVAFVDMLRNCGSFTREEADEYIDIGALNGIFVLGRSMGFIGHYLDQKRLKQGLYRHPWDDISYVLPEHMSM", "assay": "ACLY citrate cleavage enzyme inhibition, ADP-Glo assay", "assay_type": "biochemical", "conditions": "25 nM enzyme, 30 min, 37° C., read-out: IC50 for inhibition of ACLY enzyme activity (mean ± SD)", "source_text": "The ACLY-catalyzed citric acid cleavage process requires the consumption of one molecule of ATP to activate citric acid. Based on this reaction principle, the inventors utilized an ADP-Glo assay kit to detect the amount of ATP converted to ADP in response to the catalytic activity of ACLY. After the establishment of the activity measurement system and optimization of the reaction conditions, the inventors evaluated the ACLY inhibitory activity of the obtained novel ACLY small molecule inhibitors.\nActivity test protocol: Human-derived ACLY protein was purchased from Beijing Yiqiao Shenzhou Technology Co., Ltd (Item No. 11769-H07B), and ADP-Glo assay kit was purchased from Promega (Item No. V9102). The total volume of the reaction was 5 μL, which consisted of a mixture of three parts: 1 μL of 2% DMSO, 2 μL of the substrate mixture, and 2 μL of the enzyme (final concentration of 25 nM). Then 1 μL of different concentrations of compounds were added for incubation. Reaction conditions: 30 min, 37° C. Then 2.5 μL of ADP Reagent from ADP-Glo Kit was used, mixed well and reacted for 2 h. 5 μL of ADP Detection was added, centrifuged and mixed well. Then the full wavelength value was read from Envision multifunctional plate reader.\nResults: Firstly, the cumulative amount of fluorescence intensity of the enzyme in 30 min reaction time (RFU/min) was calculated to represent the initial velocity of the enzyme, and then the ratio of the enzyme's velocity with the addition of compounds (vsample) to the enzyme's velocity without the addition of compounds (vDMSO) was calculated to be the percentage of activity for each concentration group of the samples (Activity rate %), with the formula: % Activity=(V(sample)/(v(DMSO))×100%. The logarithmic value of the concentration was plotted against the activity percentage, and then a non-linear regression was used to calculate the fitted curve. The software GraphPad Prism 8.0 (formula log (inhibitor) vs. response—Variable slope) was used to fit the curve and calculate the IC50 value, and the results are shown in the table below."}, "[2]": {"tested_on": "ApoE−/− mice", "assay": "Atherosclerosis in ApoE-/- mice on high cholesterol chow, aortic plaque Sudan IV staining", "assay_type": "in vivo, mouse", "protocol": "Dosing regimen: Hypercholesterolemia is an important trigger for the development of atherosclerosis. […] The specific scheme is as follows. 60 ApoE^−/− mice, males, were equally divided into 6 groups (n=10), of which 5 groups were fed with high cholesterol chow (Research diet, item no. D12079B) for modeling, and 1 group was set aside as a blank control group, while long-term administration of the drug was carried out, i.e., the model control group, the positive control ETC-1002 30 mg/kg group, and the compounds A3 15 mg/kg and 30 mg/kg and 60 mg/kg groups, and blank control group. The compounds in each group were configured with saline (0.9% NaCl) and administered at a frequency of 1 time/day for a 24-week dosing cycle.\nIndicator test: The body weight and food intake of ApoE^−/− mice were closely monitored during the administration period. After 24 weeks of compound administration in each group, the aortic vessels of mice were stripped and Sudan IV staining of aortic plaques was performed, and the plaque area was counted with Image-Pro Plus software."}, "[3]": {"tested_on": "ob/ob mice", "assay": "NASH induced by high-fat, high-sugar, high-cholesterol diet in ob/ob mice", "assay_type": "in vivo, mouse", "conditions": "30 mg/kg, 1 time/day, 10 weeks", "protocol": "Dosing regimen: 16 ob/ob mice, males, 7-8 weeks, were equally divided into 2 groups (n=8) and fed with high-fat, high-sugar, high-cholesterol diet (Research diet, item number D09100310) for 8 weeks for modeling, and a group of wild-type mice from the same litter was set up as a blank control group. Long-term drug administration was started after 8 weeks of modeling and the groups were model control group, compound A3 30 mg/kg group, and blank control group. The compounds in each group were prepared in saline (0.9% NaCl) and administered at a frequency of 1 time/day for 10 weeks.\nIndicator test: The body weight and feeding changes of ob/ob mice and blank control mice were closely monitored during the administration period. After 10 weeks of administration, the livers of each group were taken and tested for NASH indicators (HE staining, Sirius red staining, immunohistochemistry for inflammatory signals, etc.)."}}, "data": [{"compound": "CC(C)(CCCC/C=C/CCCCCC(C)(C)C(=O)O)C(=O)O", "note": "[Compound A3]", "values": [{"measurement": "IC50", "setting": "[1]", "value": "85.4 ± 9.8", "unit": "µM"}, {"measurement": "area of aortic plaque", "setting": "[2]; 15, 30 and 60 mg/kg groups, 1 time/day, 24 weeks, vs control group", "value": "significantly reduced"}, {"measurement": "improving atherosclerosis compared with ETC-1002", "setting": "[2]; statement on previous studies", "value": "significantly better than ETC-1002"}, {"measurement": "liver whitening and granulomatous sensation due to excessive lipid accumulation", "setting": "[3]", "value": "significantly reversed"}, {"measurement": "degree of hepatic collagen deposition (Sirius red staining)", "setting": "[3]; vs model control", "value": "significantly reduced"}, {"measurement": "hepatic inflammatory cell infiltration (macrophage CD68 staining)", "setting": "[3]; vs model control", "value": "significantly reduced"}, {"measurement": "liver steatosis and ballooning (H & E staining)", "setting": "[3]; vs model control", "value": "significantly reduced"}]}]}
